In patent publication US20100056524A1, “Compound” (priority 2008, published 2010):
Counter-ions that a name gives are not always drawn. Like-named read-outs stand apart in the source and are kept apart here.

Experiments:
JNK2 = biological target: T1, JNK2 (Homo sapiens, UniProt P45984); test: JNK2 protein kinase assay; format: biochemical; conditions: for remaining activity at 10 µM: 10 μM compound; for residual kinase activity JNK2: 1 μm compound; for remaining activity at 1 µM: 1 μM compound
T1 construct: All protein kinases were of human origin and encoded full length proteins, unless indicated otherwise; made in house
Source text: (§1) All protein kinases were of human origin and encoded full length proteins, unless indicated otherwise. They were either expressed as glutathione S-transferase (GST) fusion proteins in Escherichia Coli or as hexahistidine (His6)-tagged proteins in insect Sf21 cells. GST fusion proteins were purified by affinity chromatography on glutathione-Sepharose, and His6-tagged proteins on nickel/nitriloacetate-agarose. The procedures for expressing some of the protein kinases used herein have been detailed previously.^8,9 The following sections outline the DNA vectors synthesised and the procedures used to express and purifying protein kinases that have not been reported previously.
(§2) In order to produce activated forms of Aurora B and Aurora C, insect Sf21 cells were incubated for 1 h with the protein phosphatase inhibitor okadaic acid (50 nM). JNK isoforms were activated with MKK4 and MKK7, MNK2 with p38α MAPkinase; PKBα, PKBβ, with PDK1, and ERK1 with MKK1. To activate CDK2, bacterial pellets expressing cyclin A2 and CDK2 were mixed together, lyse and purified on glutathione Sepharose. The GST-tags were removed by cleavage with PreScission protease and the CDK2-cyclin A2 complex purified by chromatography on SP-Sepharose. It was then activated with CAK1/CDK7 followed by chromatography on nickel-nitrilotriacetate agarose to remove CAK1/CDK7, which binds to this column by virtue of its C-terminal His6 tag. All the other protein kinases were active as expressed.
(§3) All assays (25.5 μl) were carried out at room temperature (21° C.) and were linear with respect to time and enzyme concentration under the conditions used. Assays were performed for 30 min using Multidrop Micro reagent dispensers (Thermo Electron Corporation, Waltham, Mass. 02454, USA) in a 96-well format. The concentration of magnesium acetate in the assays was 10 mM and the [γ-33P] ATP (800 cpm/pmol) was used at 5, 20 or 50 μM as indicated, in order to be at or below the Km for ATP for each enzyme. Protein kinases assayed at 5 μM ATP were: —ERK1, ERK8, PKBα, MARK3, Aurora C. Protein kinases assayed at 20 μM ATP were: —JNK1, PDK1, CHK1, CHK2, CDK2 and Aurora B. Protein kinases assayed at 50 μM ATP were: —MNK2, IKKepsilon and TBK1.
(§4) The assays were initiated with MgATP, stopped by addition of 5 μl of 0.5 M orthophosphoric acid and spotted on to P81 filterplates using a unifilter harvester (PerkinElmer, Boston, Mass. 02118, USA). The IC50 values of inhibitors were determined after carrying out assays at 10 different concentrations of each compound.
(§5) Unless stated otherwise, enzymes were diluted in 50 mM Tris/HCl pH 7.5, 0.1 mM EGTA, 1 mg/ml BSA, 0.1% (v/v) 2-mercaptoethanol and assayed in 50 mM Tris/HCl pH 7.5, 0.1 mM EGTA, 0.1% (v/v) 2-mercaptoethanol.

PDK1 = biological target: T2, PDK1 (Homo sapiens, UniProt O15530); test: PDK1 protein kinase assay; format: biochemical; conditions: for remaining activity at 10 µM: 10 μM compound; for residual kinase activity PDK1: 1 μm compound; for remaining activity at 1 µM: 1 μM compound
T2 construct: 3-phosphoinositide-dependent protein kinase-1 [52-556]; His6; made in house; host or cells: insect Sf21 cells
T2 sequence (O15530 52-556): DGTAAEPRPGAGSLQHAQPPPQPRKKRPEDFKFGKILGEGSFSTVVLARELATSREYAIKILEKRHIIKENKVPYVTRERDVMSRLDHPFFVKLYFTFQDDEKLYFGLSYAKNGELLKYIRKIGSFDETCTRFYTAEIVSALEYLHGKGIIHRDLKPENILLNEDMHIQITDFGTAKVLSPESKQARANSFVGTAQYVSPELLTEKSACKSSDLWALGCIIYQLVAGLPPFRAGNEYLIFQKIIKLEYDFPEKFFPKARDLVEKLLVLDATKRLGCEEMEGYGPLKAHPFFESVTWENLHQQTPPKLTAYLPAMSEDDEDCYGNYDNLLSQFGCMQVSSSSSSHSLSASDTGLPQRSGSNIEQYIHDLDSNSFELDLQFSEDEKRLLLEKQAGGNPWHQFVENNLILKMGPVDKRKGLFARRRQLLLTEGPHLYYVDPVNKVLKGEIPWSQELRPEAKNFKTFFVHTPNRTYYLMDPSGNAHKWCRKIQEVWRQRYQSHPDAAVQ
Source text: as §1
The following kinases were expressed in Sf21 cells: Aurora B and Aurora C, extra-cellular signal-regulated kinase 8 (ERK8), microtubule affinity regulating kinase 3 (MARK3), protein kinase Bα[118-480][S473D], protein kinase Bβ (PKBβ[120-481][S474D], 3-phosphoinositide-dependent protein kinase-1 [52-556]
as §3, §4, §5

CDK2-Cyclin A = biological target: T3, CDK2-Cyclin A (Homo sapiens, UniProt P24941); test: CDK2-Cyclin A protein kinase assay; format: biochemical; conditions: for remaining activity at 10 µM: 10 μM compound; for residual kinase activity CDK2-Cyclin A: 1 μm compound; for remaining activity at 1 µM: 1 μM compound
T3 construct: All protein kinases were of human origin and encoded full length proteins, unless indicated otherwise; GST (cleaved yes); made in house; host or cells: E. coli
Source text: as §1
The following proteins were expressed in E. coli: —CHK2[5-543], cyclin-dependent protein kinase 2 (CDK2), MAP kinase-interacting kinase 2 (MNK2), extra-cellular signal-regulated kinase 1 (ERK1).
as §2, §3, §4, §5

CK1 = CK1 protein kinase assay; format: biochemical, human; conditions: for residual kinase activity: CK1
Source text: as §1, §3, §4, §5

NEK6 = biological target: T4, NEK6 (Homo sapiens, UniProt Q9HC98); test: NEK6 protein kinase assay; format: biochemical; conditions: for remaining activity at 10 µM: 10 μM compound; for residual kinase activity NEK6: 1 μm compound; for remaining activity at 1 µM: 1 μM compound
T4 construct: All protein kinases were of human origin and encoded full length proteins, unless indicated otherwise; made in house
Source text: as §1, §3, §4, §5

PIM3 = biological target: T5, PIM3 (Homo sapiens, UniProt Q86V86); test: PIM3 protein kinase assay; format: biochemical; conditions: for remaining activity at 10 µM: 10 μM compound; for residual kinase activity PIM3: 1 μm compound; for remaining activity at 1 µM: 1 μM compound
T5 construct: All protein kinases were of human origin and encoded full length proteins, unless indicated otherwise; made in house
Source text: as §1, §3, §4, §5

FGF-R1 = biological target: T6, FGF-R1 (Homo sapiens, UniProt P11362); test: FGF-R1 protein kinase assay; format: biochemical; conditions: for remaining activity at 10 µM: 10 μM compound; for residual kinase activity FGF-R1: 1 μm compound; for remaining activity at 1 µM: 1 μM compound
T6 construct: All protein kinases were of human origin and encoded full length proteins, unless indicated otherwise; made in house
Source text: as §1, §3, §4, §5

SYK = biological target: T7, SYK (Homo sapiens, UniProt P43405); test: SYK protein kinase assay; format: biochemical; conditions: for remaining activity at 10 µM: 10 μM compound; for residual kinase activity SYK: 1 μm compound; for remaining activity at 1 µM: 1 μM compound
T7 construct: All protein kinases were of human origin and encoded full length proteins, unless indicated otherwise; made in house
Source text: as §1, §3, §4, §5

[1] = read-out: residual kinase activity JNK2
[2] = read-out: residual kinase activity PDK1
[3] = read-out: residual kinase activity CDK2-Cyclin A
[4] = read-out: residual kinase activity NEK6
[5] = read-out: residual kinase activity PIM3
[6] = read-out: residual kinase activity FGF-R1
[7] = read-out: residual kinase activity SYK
[8] = JNK2, read-out: residual kinase activity
[9] = PDK1, 20 μM ATP, read-out: residual kinase activity
[10] = CDK2-Cyclin A, 20 μM ATP, read-out: residual kinase activity
[11] = NEK6, read-out: residual kinase activity
[12] = PIM3, read-out: residual kinase activity
[13] = FGF-R1, read-out: residual kinase activity
[14] = SYK, read-out: residual kinase activity

T4 sequence (Q9HC98 whole entry): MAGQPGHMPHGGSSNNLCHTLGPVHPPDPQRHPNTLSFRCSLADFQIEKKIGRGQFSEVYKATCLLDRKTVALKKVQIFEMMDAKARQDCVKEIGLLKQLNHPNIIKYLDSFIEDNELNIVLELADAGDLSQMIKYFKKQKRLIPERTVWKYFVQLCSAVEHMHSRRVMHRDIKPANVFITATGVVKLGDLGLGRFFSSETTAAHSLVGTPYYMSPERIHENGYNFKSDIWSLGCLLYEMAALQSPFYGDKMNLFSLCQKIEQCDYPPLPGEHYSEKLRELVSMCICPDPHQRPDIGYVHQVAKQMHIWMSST
T6 sequence (P11362 400-820 limits assumed): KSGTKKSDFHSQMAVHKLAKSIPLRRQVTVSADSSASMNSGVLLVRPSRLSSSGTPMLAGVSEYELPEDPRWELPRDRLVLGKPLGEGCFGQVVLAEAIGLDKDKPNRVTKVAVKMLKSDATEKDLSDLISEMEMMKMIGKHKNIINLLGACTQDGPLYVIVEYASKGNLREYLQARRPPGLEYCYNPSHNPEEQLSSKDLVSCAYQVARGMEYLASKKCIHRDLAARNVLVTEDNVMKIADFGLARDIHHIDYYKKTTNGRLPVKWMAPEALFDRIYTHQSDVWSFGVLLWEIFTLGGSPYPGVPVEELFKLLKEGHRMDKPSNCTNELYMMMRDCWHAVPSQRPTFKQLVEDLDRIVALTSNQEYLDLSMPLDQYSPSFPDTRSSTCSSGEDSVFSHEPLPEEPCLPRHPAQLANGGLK
T1 sequence (P45984 whole entry): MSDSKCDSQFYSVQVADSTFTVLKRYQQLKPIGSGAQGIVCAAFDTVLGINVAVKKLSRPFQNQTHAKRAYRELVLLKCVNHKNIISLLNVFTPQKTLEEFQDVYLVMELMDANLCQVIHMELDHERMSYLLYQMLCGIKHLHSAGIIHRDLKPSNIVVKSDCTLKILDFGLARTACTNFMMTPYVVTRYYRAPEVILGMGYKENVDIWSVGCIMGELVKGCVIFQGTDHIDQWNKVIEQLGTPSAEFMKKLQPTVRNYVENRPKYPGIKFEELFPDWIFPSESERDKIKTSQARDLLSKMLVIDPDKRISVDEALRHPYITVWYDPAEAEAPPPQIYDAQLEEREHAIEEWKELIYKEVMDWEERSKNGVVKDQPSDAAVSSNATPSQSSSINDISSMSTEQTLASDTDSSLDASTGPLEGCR

| SMILES | remaining activity at 10 µM (JNK2; [1]) [%] | residual kinase activity JNK2 (JNK2) [%] | remaining activity at 10 µM (PDK1; [2]) [%] | residual kinase activity PDK1 (PDK1) [%] | remaining activity at 1 µM (JNK2; [8]) [%] | remaining activity at 10 µM (JNK2; [8]) [%] | remaining activity at 1 µM (PDK1; [9]) [%] | remaining activity at 10 µM (PDK1; [9]) [%] | remaining activity at 1 µM (CDK2-Cyclin A; [10]) [%] | remaining activity at 10 µM (CDK2-Cyclin A; [10]) [%] | residual kinase activity (CK1; 1 μM compound) [%] | residual kinase activity (CK1; 10 μM compound) [%] | remaining activity at 1 µM (NEK6; [11]) [%] | remaining activity at 10 µM (NEK6; [11]) [%] | remaining activity at 1 µM (PIM3; [12]) [%] | remaining activity at 10 µM (PIM3; [12]) [%] | remaining activity at 1 µM (FGF-R1; [13]) [%] | remaining activity at 10 µM (FGF-R1; [13]) [%] | remaining activity at 1 µM (SYK; [14]) [%] | remaining activity at 10 µM (SYK; [14]) [%] | further results |
| --- | --- | --- | --- | --- | --- | --- | --- | --- | --- | --- | --- | --- | --- | --- | --- | --- | --- | --- | --- | --- | --- |
| O=C(NCCCNc1nc(Nc2cccc(F)c2)ncc1Br)C1CCC1 [Compound A, cyclobutanecarboxylic acid {3-[5-bromo-2-(3-fluoro-phenylamino)-pyrimidin-4-ylamino]-propyl}-amide, reference compound] | 5 | 40 | 1 | 6 |  |  |  |  |  |  |  |  |  |  |  |  |  |  |  |  | remaining activity at 10 µM (CDK2-Cyclin A; [3]): 0%; residual kinase activity CDK2-Cyclin A (CDK2-Cyclin A): 1%; residual kinase activity CK1 (CK1; 10 μM compound): 50%; residual kinase activity CK1 (CK1; 1 μm compound): 91%; remaining activity at 10 µM (NEK6; [4]): 93%; residual kinase activity NEK6 (NEK6): 88%; remaining activity at 10 µM (PIM3; [5]): 21%; residual kinase activity PIM3 (PIM3): 78%; remaining activity at 10 µM (FGF-R1; [6]): 1%; residual kinase activity FGF-R1 (FGF-R1): 17%; remaining activity at 10 µM (SYK; [7]): 4%; residual kinase activity SYK (SYK): 25% |
| O=C(NCCCNc1nc(Nc2cccc(F)c2)ncc1C1CC1)C1CCC1 [Example 23, Cyclobutanecarboxylic acid {3-[5-cyclopropyl-2-(3-fluoro-phenylamino)-pyrimidin-4-ylamino]-propyl}-amide] | 55 | 78 | 10 | 44 | 78 | 55 | 44 | 10 | 17 | 2 | 93 | 64 | 88 | 83 | 73 | 37 | 89 | 36 | 87 | 46 | remaining activity at 10 µM (CDK2-Cyclin A; [3]): 2%; residual kinase activity CDK2-Cyclin A (CDK2-Cyclin A): 17%; residual kinase activity CK1 (CK1; 10 μM compound): 64%; residual kinase activity CK1 (CK1; 1 μm compound): 93%; remaining activity at 10 µM (NEK6; [4]): 83%; residual kinase activity NEK6 (NEK6): 88%; remaining activity at 10 µM (PIM3; [5]): 37%; residual kinase activity PIM3 (PIM3): 73%; remaining activity at 10 µM (FGF-R1; [6]): 36%; residual kinase activity FGF-R1 (FGF-R1): 89%; remaining activity at 10 µM (SYK; [7]): 46%; residual kinase activity SYK (SYK): 87% |
| O=C(NCCCNc1nc(Nc2cccc(N3CCCC3=O)c2)ncc1C1CC1)c1cccs1 [Example 47, Thiophene-2-carboxylic acid (3-{5-cyclopropyl-2-[3-(2-oxo-pyrrolidin-1-yl)-phenylamino]-pyrimidin-4-ylamino}-propyl)-amide. Hydrochloride salt] |  |  |  |  | 98 | 89 | 9 | 2 | 70 | 29 | 102 | 106 | 65 | 65 | 99 | 78 | 78 | 31 | 82 | 49 |  |
| O=C(NCCCNc1nc(Nc2cccnc2)ncc1C1CC1)c1cccs1 [Example 50, Thiophene-2-carboxylic acid {3-[5-cyclopropyl-2-(pyridin-3-ylamino)-pyrimidin-4-ylamino]-propyl}-amide] |  |  |  |  | 102 | 66 | 22 | 4 | 33 | 5 | 107 | 82 | 107 | 103 | 102 | 50 | 77 | 31 | 83 | 60 |  |
